Test results reported in patent US9771332B2, “2-thiopyrimidinones” (Pfizer Inc., priority 2015, dated 2017).
Structures can show the parent of a compound that is named as a salt. Where two headings read alike, the source gives them in different places.

Key:
MPO = target: T1, MPO (Homo sapiens, UniProt P05164); assay: Human Whole Blood Assay for Irreversible Inhibition of MPO; format: cell-based; conditions: LPS-stimulated human whole blood, 4 hour incubation; irreversible inhibition of active MPO
T1 construct: endogenous in cells; host or cells: human whole blood leukocytes, LPS-stimulated
T1 sequence (P05164 279-745 limits assumed): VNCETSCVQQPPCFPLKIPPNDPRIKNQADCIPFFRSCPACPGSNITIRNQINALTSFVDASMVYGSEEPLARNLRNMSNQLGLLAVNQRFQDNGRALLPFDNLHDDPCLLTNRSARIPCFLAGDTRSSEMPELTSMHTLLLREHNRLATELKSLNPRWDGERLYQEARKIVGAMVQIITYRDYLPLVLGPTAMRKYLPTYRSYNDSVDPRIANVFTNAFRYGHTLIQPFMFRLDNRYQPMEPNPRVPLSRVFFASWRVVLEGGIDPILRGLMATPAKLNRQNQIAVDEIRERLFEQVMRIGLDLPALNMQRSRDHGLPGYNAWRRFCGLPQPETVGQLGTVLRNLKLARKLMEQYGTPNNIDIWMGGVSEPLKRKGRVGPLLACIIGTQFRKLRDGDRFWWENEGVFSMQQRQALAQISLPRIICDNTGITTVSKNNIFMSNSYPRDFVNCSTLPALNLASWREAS
T1 sequence (P05164 165-273 limits assumed): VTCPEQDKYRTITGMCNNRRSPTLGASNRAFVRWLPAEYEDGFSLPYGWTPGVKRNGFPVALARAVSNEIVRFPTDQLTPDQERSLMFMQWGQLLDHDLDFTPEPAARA
Experimental: To measure the inhibition of MPO activity in a biological system in the present invention, bioassays were performed with human whole blood that was collected from medication-free, human volunteers in heparin treated tubes (APP Pharmaceuticals, LLC, cat # NDC#63323-047-10, #4710). Blood was aliquoted and treated with different concentrations of the MPO inhibitor or vehicle control and co-treated with or without bacterial lipopolysaccharide (LPS, InVivogen) to stimulate blood leukocytes to simultaneously generate H2O2 (a required MPO substrate) and the release of MPO. After a 4 hour incubation at room temperature the plasma fraction was collected following a 2000×g centrifugation at 4° C.
The plasma fraction was divided in two for analysis of total MPO and active MPO. The total MPO content was determined using a standard sandwich ELISA (capture and detection antibodies: Cell Sciences, Cat# HP9048, and Cell Sciences, Cat# HM2164, clone 266-6K1) and calculated relative to a standard curve of purified MPO (myeloperoxidase, Calbiochem, cat#475911) that was prepared by dilution in the autologous donor plasma. The MPO activity is determined by capturing the total MPO from plasma using the capture step as described for the above ELISA method. […] The MPO activity of the captured material was compared to that obtained with a standard curve of purified MPO (myeloperoxidase, Calbiochem, cat#475911) that was prepared in autologous donor plasma. The percent of ‘active’ myeloperoxidase for each sample was calculated from the ratio of the active myeloperoxidase in the Amplex Red assay and the total myeloperoxidase from the ELISA for each sample. A dose response curve of the compound concentration versus MPO activity was then plotted to determine the IC50 value.

hERG potassium channel = target: T2, hERG potassium channel (Homo sapiens, UniProt Q12809); assay: hERG Assay (Qpatch HT automated patch clamp, hERG-transfected CHO cells); format: cell-based; conditions: for Therapeutic ratio hERG IC50/MPO IC50: hERG IC50 divided by MPO IC50 in human whole blood; for inhibition at 5 min, 100 µM: at 100 uM; for inhibition at 5 min, 300 µM: at 300 uM
T2 construct: host or cells: CHO cells (PrecisiON hERG-CHO Recombinant Cell Line)
T2 sequence (Q12809 whole entry): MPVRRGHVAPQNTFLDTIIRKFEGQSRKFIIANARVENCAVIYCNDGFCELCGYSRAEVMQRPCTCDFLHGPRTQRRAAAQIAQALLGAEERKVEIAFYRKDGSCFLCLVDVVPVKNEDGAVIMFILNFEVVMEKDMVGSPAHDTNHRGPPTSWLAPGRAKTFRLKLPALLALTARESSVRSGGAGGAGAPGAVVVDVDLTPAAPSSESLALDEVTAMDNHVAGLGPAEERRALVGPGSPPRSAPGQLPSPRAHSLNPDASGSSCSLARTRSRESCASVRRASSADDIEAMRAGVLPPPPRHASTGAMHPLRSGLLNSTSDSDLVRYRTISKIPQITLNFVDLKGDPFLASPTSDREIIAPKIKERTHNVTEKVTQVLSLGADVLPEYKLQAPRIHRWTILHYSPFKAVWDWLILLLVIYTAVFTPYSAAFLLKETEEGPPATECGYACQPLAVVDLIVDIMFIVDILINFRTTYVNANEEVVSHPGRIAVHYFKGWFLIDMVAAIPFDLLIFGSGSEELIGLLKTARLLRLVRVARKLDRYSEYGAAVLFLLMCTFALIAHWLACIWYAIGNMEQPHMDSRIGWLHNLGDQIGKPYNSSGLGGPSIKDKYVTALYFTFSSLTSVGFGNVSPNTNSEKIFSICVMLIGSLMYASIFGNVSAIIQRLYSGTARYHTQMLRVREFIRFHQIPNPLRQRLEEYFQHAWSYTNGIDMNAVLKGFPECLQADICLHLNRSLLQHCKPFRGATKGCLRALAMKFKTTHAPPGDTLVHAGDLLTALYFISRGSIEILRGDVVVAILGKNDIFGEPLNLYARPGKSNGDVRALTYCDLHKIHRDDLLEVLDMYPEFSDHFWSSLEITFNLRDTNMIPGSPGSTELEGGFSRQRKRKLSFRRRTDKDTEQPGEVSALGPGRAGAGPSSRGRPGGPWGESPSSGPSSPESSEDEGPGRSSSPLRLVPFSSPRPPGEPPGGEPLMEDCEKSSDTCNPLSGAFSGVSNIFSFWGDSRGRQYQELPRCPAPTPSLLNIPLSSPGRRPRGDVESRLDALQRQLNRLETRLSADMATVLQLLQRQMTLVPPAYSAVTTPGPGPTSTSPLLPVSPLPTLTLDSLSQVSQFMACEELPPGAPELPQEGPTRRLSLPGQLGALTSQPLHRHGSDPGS
Experimental: All testing was carried out in CHO cells transfected with the hERG gene purchased from Millipore (PrecisiON hERG-CHO Recombinant Cell Line CYL3038). The cell line was grown in DMEM/F-12, GlutaMAX™ with 10% fetal bovine serum, 1% Penicillin-Streptomycin, 1% Geneticin and 1% of 1M HEPES buffer solution, and maintained at approximately 37° C. in a humidified atmosphere containing 5% carbon dioxide. The cells were passaged every 3-5 days based on confluency. On the day of the experiment, 50%-80% confluent cells were harvested from a 175 cm^2 culture flask using Detachin™. After 10 minutes of exposure to Detachin™ at 37° C., the cells were centrifuged for 1 minute at 1000 RPM. The supernatant was removed and the cell pellet was reconstituted in 5-8 mL of serum free media with 2.5% of 1M HEPES, placed on the Qstirrer™, and allowed to recover. After a ˜30 minute recovery period, experiments were initiated.
hERG current was elicited and recorded using the automated Qpatch HT™ system (as described in Kutchinsky J, Friis S, Asmild M, et al. Characterization of potassium channel modulators with QPatch automated patch-clamp technology: system characteristics and performance. Assay Drug Dev Technol 2003; 1(5):685-93). The suspended cells in the Qstirrer™ were transferred to 48 individual recording chambers on a Qplate 48™ containing extracellular recording saline composed of (in mM): 138 NaCl, 5.3 KCl, 1.3 CaCl2, 0.5 MgCl2, 5.6 Glucose, 5 HEPES, 0.4 MgSO4, 0.44 KH2PO4, 4.2 NaHCO3, 0.34 Na2HPO4, and adjusted to pH 7.4±0.1 with NaOH. The intracellular recording saline was composed of (in mM): 130 KCl, 1 MgCl2, 10 HEPES, 5 Mg-ATP, and 5 EGTA, and adjusted to pH 7.2±0.1 with KOH. Membrane currents were recorded at room temperature.
hERG current was elicited from a holding potential of −80 mV with a voltage step to +30 mV for 1 second, followed by a ramp back to −80 mV at 0.55 mV/ms. Test pulses were delivered at a frequency of 0.25 Hz. Up to 4 different concentrations were studied on each cell, each exposure lasting 5 minutes or until steady-state effects were observed. In a separate set of experiments, a full concentration-response relationship and an IC50 was determined for a positive control, cisapride, (Jules C. Hancox, Mark J. McPate, Aziza El Harchi, Yi hong Zhang, The hERG potassium channel and hERG screening for drug-induced torsades de pointes, Pharmacology & Therapeutics, Volume 119, Issue 2, August 2008, Pages 118-132).
Using Sophion Qpatch Assay Software, the amplitude of the peak outward hERG current upon repolarizing ramp was measured. Current amplitude was determined by taking the average of the last 5 current peaks under each treatment condition. Percent inhibition was determined by taking the ratio of the current measured at steady state in the presence of test article (ITest article) versus the control current (Icontrol), and expressed as: % inhibition=100−(ITest article/IControl)*100. When possible, a concentration-response curve was plotted and the data were fitted using Qpatch software to determine an IC50.

[1] = fit to a concentration-response curve, read-out: hERG IC50 (determined by curve fitting)
[2] = extrapolated from single-point % inhibition, read-out: hERG IC50 (extrapolated from % activity shown)

Row | Structure (SMILES) | IC50 (MPO) [µM] | IC50 (hERG potassium channel; [1]) [µM] | Therapeutic ratio hERG IC50/MPO IC50 (hERG potassium channel) | inhibition at 5 min, 30 µM (hERG potassium channel; human, pH 7.4, at 30 uM) [%] | inhibition at 5 min, 100 µM (hERG potassium channel; human, pH 7.4) [%] | hERG IC50/MPO IC50 safety ratio over compound C (hERG potassium channel; 5515/41) [times] | hERG IC50/MPO IC50 safety ratio over compound D (hERG potassium channel; 5515/162) [times] | hERG IC50/MPO IC50 safety ratio over compound E (hERG potassium channel; 5515/260) [times] | hERG IC50/MPO IC50 safety ratio over compound F (hERG potassium channel; 5515/900) [times] | hERG IC50/MPO IC50 safety ratio over compound G (hERG potassium channel; 5515/1500) [times] | IC50 (hERG potassium channel; [2]) [µM] | inhibition at 5 min, 300 µM (hERG potassium channel; human, pH 7.4) [%]
1 | COc1ccc(Cl)cc1-c1cc(=O)[nH]c(=S)n1CCN [C] | 0.8 | 33 | 41 | 49 | 75 |  |  |  |  |  |  | 
2 | Cc1ccc(OCCO)c(-c2cc(=O)[nH]c(=S)n2CCN)c1 [Compound A, 1-(2-Aminoethyl)-6-(2-(2-hydroxyethoxy)-5-methylphenyl)-2-thioxo-2,3-dihydropyrimidin-4(1H)-one hydrochloride] | 0.55 |  | 5515 |  |  | 135 | 34 | 21 | 6.1 | 3.7 | 3030 | 9
3 | COc1ccc(C)cc1-c1cc(=O)[nH]c(=S)n1CC(N)=O [Compound B] | 2.5 |  |  |  |  |  |  |  |  |  |  | 
4 | NCCn1c(-c2cc(Cl)ccc2OCCO)cc(=O)[nH]c1=S [Compound E] | 1.3 |  | 260 |  | 23 |  |  |  |  |  | 335 | 
5 | COc1ccc(C)cc1-c1cc(=O)[nH]c(=S)n1CCN [D] | 0.99 | 160 | 162 |  | 40 |  |  |  |  |  |  | 63
6 | COc1ccc(Cl)cc1-c1cc(=O)[nH]c(=S)n1CC(N)=O [F, 2-(6-(5-chloro-2-methoxyphenyl)-4-oxo-2-thioxo-3,4-dihydropyrimidin-1(2H)-yl)acetamide] |  |  |  |  |  |  |  |  |  |  | 1700 | 15
7 | COc1ccc(-c2cc(=O)[nH]c(=S)n2CC(=O)NCCN)c(OC)c1 [G, N-(2-aminoethyl)-2-[6-(2,4-dimethoxyphenyl)-4-oxo-2-thioxo-3,4-dihydropyrimidin-1(2H)-yl]acetamide] | 0.6 |  | 1500 |  |  |  |  |  |  |  | 900 | 25
